Data on 23 compounds can be found in US20240254118A1, “PRMT5 INHIBITORS AND USES THEREOF” (Gilead Sciences, Inc., priority 2022, published 2024).

For experiment [1], the system named is SDMA signal (PRMT5 inhibition) in HCT116 MTAP-deleted cells. Kind of experiment: Symmetric di-methyl arginine image-based high content screen assay (SDMA assay), HCT116 MTAP-deleted. The format is cell-based. Conditions: SDMA assay; for EC50: Homo sapiens, HCT-116, 72 h, 3 days of treatment, cell line not given, taken as HCT116 MTAP-deleted, read-out: EC50 (SDMA assay); for EC50 selectivity (SDMA assay): taken as HCT116 WT versus MTAP-deleted. The gist of the method:
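Read-out: per-cell mean SDMA immunofluorescence (Alexa Fluor 488 secondary), cells segmented by DAPI on a high-content imager. Compound exposure in HCT116 MTAP-deleted cells lasted until fixation on Day 3; overnight 4° C primary anti-SDMA antibody staining.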

Experiment [2] deals with HCT116 MTAP-deleted cells. Kind of experiment: Cell viability assay (CellTiter-Glo, 7 days), HCT116 MTAP-deleted. Conditions: Homo sapiens, HCT-116, 168 h. In general terms: Cellular ATP, detected with luciferase, serves as a proxy for viable cell number.

For the compound `Cn1ncc2c(N)nc3cc(F)c(C(=O)N(Cc4ccccc4F)N4CCCC4=O)cc3c21` [Example 55, 4-amino-7-fluoro-N-(2-fluorobenzyl)-1-methyl-N-(2-oxopyrrolidin-1-yl)-1H-pyrazolo[4,3-c]quinoline-8-carboxamide], in experiment [1], the EC50 (in general, the midpoint of the concentration-response curve) was less than 1 nM and the “EC50 selectivity (SDMA assay)” value is 168. In experiment [2], the CC50 – broadly, the concentration that lowers cell viability or growth by half – was less than 100 nM.

Turning to `Cn1ncc2c(N)nc3ccc(C(=O)N(Cc4ccccc4F)N4CCCC4=O)cc3c21` [Example 56, 4-amino-N-(2-fluorobenzyl)-1-methyl-N-(2-oxopyrrolidin-1-yl)-1H-pyrazolo[4,3-c]quinoline-8-carboxamide], in experiment [1], the EC50 is less than 1 nM and the “EC50 selectivity (SDMA assay)” value is given as 195. The compound further returned a CC50 in experiment [2] of less than 100 nM.

With `Cn1ncc2c(N)nc3cc(F)c(C(=O)N(Cc4ccc(C(F)(F)F)nc4)N4CCCC4=O)cc3c21` [Example 57, 4-amino-7-fluoro-1-methyl-N-(2-oxopyrrolidin-1-yl)-N-((6-(trifluoromethyl)pyridin-3-yl)methyl)-1H-pyrazolo[4,3-c]quinoline-8-carboxamide], in experiment [1], the EC50 fell in the range of 1 to 5 nM and the “EC50 selectivity (SDMA assay)” value came out at 108. In addition, the CC50 in experiment [2] is less than 100 nM.

`CN1CCN(N(Cc2ccc(C(F)(F)F)cn2)C(=O)c2ccc3nc(N)c4cnn(C)c4c3c2)CC1` [Example 58, 4-amino-1-methyl-N-(4-methylpiperazin-1-yl)-N-((5-(trifluoromethyl)pyridin-2-yl)methyl)-1H-pyrazolo[4,3-c]quinoline-8-carboxamide]: in experiment [1], the EC50 lay in the range of 1 to 5 nM and the “EC50 selectivity (SDMA assay)” value worked out at 126. For the same compound, the CC50 in experiment [2] is 100 to 1000 nM.

On to `CN1CCN(N(Cc2ccc(C(F)(F)F)cn2)C(=O)c2cc3c(cc2F)nc(N)c2cnn(C)c23)CC1` [Example 59, 4-amino-7-fluoro-1-methyl-N-(4-methylpiperazin-1-yl)-N-((5-(trifluoromethyl)pyridin-2-yl)methyl)-1H-pyrazolo[4,3-c]quinoline-8-carboxamide], for which, in experiment [1], the EC50 is less than 1 nM and the “EC50 selectivity (SDMA assay)” value is given as 53. This compound displayed a CC50 in experiment [2] of less than 100 nM.

Turning to `Cn1ncc2c(N)nc3cc(F)c(C(=O)N(Cc4ccc(C(F)(F)F)nn4)N4CCCC4=O)cc3c21` [Example 60, 4-amino-7-fluoro-1-methyl-N-(2-oxopyrrolidin-1-yl)-N-((6-(trifluoromethyl)pyridazin-3-yl)methyl)-1H-pyrazolo[4,3-c]quinoline-8-carboxamide], in experiment [1], the EC50 lay in the range of 1 to 5 nM and the “EC50 selectivity (SDMA assay)” value is recorded as 58. In addition, the CC50 in experiment [2] is less than 100 nM.

Turning to `CC(=O)N(C)N(Cc1ccc(C(F)(F)F)nn1)C(=O)c1ccc2nc(N)c3cnn(C)c3c2c1` [Example 61, N′-acetyl-4-amino-N′,1-dimethyl-N-((6-(trifluoromethyl)pyridazin-3-yl)methyl)-1H-pyrazolo[4,3-c]quinoline-8-carbohydrazide], in experiment [1], the EC50 was in the range of 1 to 5 nM and the “EC50 selectivity (SDMA assay)” value is on record as 124. Also, the CC50 in experiment [2] is 100 to 1000 nM.

Turning to `Cn1ncc2c(N)nc3ccc(C(=O)N(Cc4ccc(C(F)(F)F)cn4)N4CCOCC4=O)cc3c21` [Example 62, 4-amino-1-methyl-N-(3-oxomorpholin-4-yl)-N-[[5-(trifluoromethyl)-2-pyridyl]methyl]pyrazolo[4,3-c]quinoline-8-carboxamide], in experiment [1], the EC50 is less than 1 nM and the “EC50 selectivity (SDMA assay)” value came out at 94. This compound registered a CC50 in experiment [2] of less than 100 nM.

On to `Cn1ncc2c(N)nc3cc(Cl)c(C(=O)N(Cc4ccc(C(F)(F)F)cn4)N4CCOCC4=O)cc3c21` [Example 63, 4-amino-7-chloro-1-methyl-N-(3-oxomorpholin-4-yl)-N-[[5-(trifluoromethyl)-2-pyridyl]methyl]pyrazolo[4,3-c]quinoline-8-carboxamide], for which, in experiment [1], the EC50 was 1 to 5 nM and the “EC50 selectivity (SDMA assay)” value came to 70. The compound further had a cytotoxic concentration (CC50) in experiment [2] of less than 100 nM.

For `Cn1ncc2c(N)nc3ccc(C(=O)N(Cc4c(F)cc(C(F)(F)F)cc4F)N4CCCCC4=O)cc3c21` [Example 64, 4-amino-N-[[2,6-difluoro-4-(trifluoromethyl)phenyl]methyl]-1-methyl-N-(2-oxo-1-piperidyl)pyrazolo[4,3-c]quinoline-8-carboxamide], in experiment [1], the EC50 is less than 1 nM and the “EC50 selectivity (SDMA assay)” value is listed as 15. Besides, the CC50 in experiment [2] is less than 100 nM.

Consider `Cn1ncc2c(N)nc3ccc(C(=O)N(Cc4nc5ccccc5s4)N4CCCC4=O)cc3c21` [Example 65, 4-amino-N-(1,3-benzothiazol-2-ylmethyl)-1-methyl-N-(2-oxopyrrolidin-1-yl)pyrazolo[4,3-c]quinoline-8-carboxamide], for which, in experiment [1], the EC50 was less than 1 nM and the “EC50 selectivity (SDMA assay)” value amounted to 149. This compound also showed a 50% cytotoxic concentration (CC50) in experiment [2] of less than 100 nM.

Turning to `Cn1ncc2c(N)nc3ccc(C(=O)N(Cc4ccc(C(C)(C)O)nc4)N4CCCCC4=O)cc3c21` [Example 66, 4-amino-N-[[6-(1-hydroxy-1-methyl-ethyl)-3-pyridyl]methyl]-1-methyl-N-(2-oxo-1-piperidyl)pyrazolo[4,3-c]quinoline-8-carboxamide], in experiment [1], the EC50 is greater than 5 nM and the “EC50 selectivity (SDMA assay)” value is 281. For the same compound, the CC50 in experiment [2] lay in the range of 100 to 1000 nM.

Take `COc1cc(C(F)(F)F)ccc1CN(C(=O)c1ccc2nc(N)c3cnn(C)c3c2c1)N1CCCCC1=O` [Example 67, 4-amino-N-[[2-methoxy-4-(trifluoromethyl)phenyl]methyl]-1-methyl-N-(2-oxo-1-piperidyl)pyrazolo[4,3-c]quinoline-8-carboxamide]: in experiment [1], the EC50 is less than 1 nM and the “EC50 selectivity (SDMA assay)” value was determined as 25. This compound returned a CC50 in experiment [2] of less than 100 nM.

Turning to `CC(=O)N(C)N(Cc1ccc(C(F)(F)F)cn1)C(=O)c1ccc2nc(N)c3ccccc3c2c1` [Example 68, N′-acetyl-6-amino-N′-methyl-N-[[5-(trifluoromethyl)-2-pyridyl]methyl]phenanthridine-2-carbohydrazide], in experiment [1], the EC50 lay in the range of 1 to 5 nM and the “EC50 selectivity (SDMA assay)” value is reported as 304. In experiment [2], this compound came in with a CC50 of 100 to 1000 nM.

Turning to `CC(=O)N(C)N(Cc1ccc(C(F)(F)F)cn1)C(=O)c1ccc2nc(N)c3sncc3c2c1` [Example 69, N′-acetyl-4-amino-N′-methyl-N-[[5-(trifluoromethyl)-2-pyridyl]methyl]isothiazolo[5,4-c]quinoline-8-carbohydrazide], in experiment [1], the EC50 is 1 to 5 nM and the “EC50 selectivity (SDMA assay)” value is given as 142. In experiment [2], this compound gave a CC50 of 100 to 1000 nM.

Turning to `CC(=O)N(C)N(Cc1ccc(C(F)(F)F)cn1)C(=O)c1cc2c3c(c(N)nc2cc1F)COC3` [Example 70, N′-acetyl-4-amino-7-fluoro-N′-methyl-N-[[5-(trifluoromethyl)-2-pyridyl]methyl]-1,3-dihydrofuro[3,4-c]quinoline-8-carbohydrazide], in experiment [1], the EC50 was 1 to 5 nM and the “EC50 selectivity (SDMA assay)” value was determined as 11. In addition, the CC50 in experiment [2] is less than 100 nM.

As for `CC(=O)N(C)N(Cc1ccc(C(F)(F)F)cn1)C(=O)c1ccc2nc(N)c3c(c2c1)CO[C@@H]3C` [Example 71, (3R)—N′-acetyl-4-amino-N′,3-dimethyl-N-[[5-(trifluoromethyl)-2-pyridyl]methyl]-1,3-dihydrofuro[3,4-c]quinoline-8-carbohydrazide], in experiment [1], the EC50 lay in the range of 1 to 5 nM and the “EC50 selectivity (SDMA assay)” value is 59. In experiment [2], this compound showed a CC50 of less than 100 nM.

For `CC(=O)N(C)N(Cc1ccc(C(F)(F)F)cn1)C(=O)c1ccc2nc(N)c3cnccc3c2c1` [Example 72, N′-acetyl-5-amino-N′-methyl-N-((5-(trifluoromethyl)pyridin-2-yl)methyl)benzo[c][2,7]naphthyridine-9-carbohydrazide], in experiment [1], the concentration for a half-maximal effect (EC50) lay in the range of 1 to 5 nM and the “EC50 selectivity (SDMA assay)” value was found to be 142. Also, in experiment [2], the CC50 lay within 100 to 1000 nM.

Take `CN(C)N(Cc1ccc(C(F)(F)F)cn1)C(=O)c1ccc2nc(N)c3cscc3c2c1` [Example 73, 4-amino-N′,N′-dimethyl-N-((5-(trifluoromethyl)pyridin-2-yl)methyl)thieno[3,4-c]quinoline-8-carbohydrazide]: in experiment [1], the EC50 was greater than 5 nM and the “EC50 selectivity (SDMA assay)” value is given as 39. The CC50 in experiment [2] lay within 100 to 1000 nM.

Regarding `CC(c1ccc(C(F)(F)F)cn1)N(C(=O)c1ccc2nc(N)c3cscc3c2c1)N(C)C` (stereo not drawn) [Example 74, 4-amino-N′,N′-dimethyl-N-(1-(5-(trifluoromethyl)pyridin-2-yl)ethyl)thieno[3,4-c]quinoline-8-carbohydrazide], in experiment [1], the EC50 is greater than 5 nM and the “EC50 selectivity (SDMA assay)” value was greater than 71. The compound also showed a CC50 in experiment [2] of 100 to 1000 nM.

On to `CN(C1CC1)N(Cc1ccc(C(F)(F)F)cn1)C(=O)c1ccc2nc(N)c3cnn(C)c3c2c1` [Example 75, 4-amino-N′-cyclopropyl-N′,1-dimethyl-N-((5-(trifluoromethyl)pyridin-2-yl)methyl)-1H-pyrazolo[4,3-c]quinoline-8-carbohydrazide], for which, in experiment [1], the EC50 is less than 1 nM and the “EC50 selectivity (SDMA assay)” value is recorded as 68. The 50% cytotoxic concentration (CC50) in experiment [2] is less than 100 nM.

With `Nc1nc2ccc(C(=O)N(Cc3ccc(C(F)(F)F)cn3)Nc3ncccn3)cc2c2ccccc12` [Example 76, 6-amino-N′-(pyrimidin-2-yl)-N-((5-(trifluoromethyl)pyridin-2-yl)methyl)phenanthridine-2-carbohydrazide], in experiment [1], the EC50 fell in the range of 1 to 5 nM and the “EC50 selectivity (SDMA assay)” value was 204. The compound also registered a half-maximal cytotoxic concentration (CC50) in experiment [2] of 100 to 1000 nM.

For the compound `CC(=O)N(C)N(Cc1ccc(OC(F)F)cc1F)C(=O)c1ccc2nc(N)c3cnn(C)c3c2c1` [Example 77, N′-acetyl-4-amino-N-(4-(difluoromethoxy)-2-fluorobenzyl)-N′,1-dimethyl-1H-pyrazolo[4,3-c]quinoline-8-carbohydrazide], in experiment [1], the half-maximal effective concentration (EC50) was less than 1 nM and the “EC50 selectivity (SDMA assay)” value turned out to be 69. In addition, the CC50 in experiment [2] was less than 100 nM.
